Here are results for 10 molecules from paper PMC6328375 (Molecular pharmaceutics, 2017).

A word on the inhibition: it is the drop in the measured response relative to a control, in per cent. Read a low inhibition as a weak effect. As a reminder, the Km is the substrate concentration at which the rate is half of its maximum.

Data set [1] concerns the target T1, OCT1 (Homo sapiens, UniProt O15245).
T1 sequence (O15245 1-554): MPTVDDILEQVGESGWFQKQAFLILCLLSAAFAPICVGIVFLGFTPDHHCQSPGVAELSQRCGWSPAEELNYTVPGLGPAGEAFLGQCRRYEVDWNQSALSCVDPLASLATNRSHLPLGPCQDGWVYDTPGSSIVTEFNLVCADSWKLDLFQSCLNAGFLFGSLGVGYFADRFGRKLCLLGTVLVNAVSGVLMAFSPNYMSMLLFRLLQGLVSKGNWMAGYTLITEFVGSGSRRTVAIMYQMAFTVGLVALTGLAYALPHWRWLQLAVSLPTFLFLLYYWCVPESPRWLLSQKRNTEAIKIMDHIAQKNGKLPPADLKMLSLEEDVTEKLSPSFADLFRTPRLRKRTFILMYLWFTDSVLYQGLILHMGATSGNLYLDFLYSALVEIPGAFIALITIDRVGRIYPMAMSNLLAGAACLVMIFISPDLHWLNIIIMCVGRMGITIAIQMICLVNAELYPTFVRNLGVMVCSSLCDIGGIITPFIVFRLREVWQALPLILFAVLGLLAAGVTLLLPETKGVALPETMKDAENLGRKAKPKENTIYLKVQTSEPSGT
Put plainly: Inhibition of [14C]-metformin uptake in HEK293 cells expressing OCT1. The class given is cell-based.

Data set [2] deals with T2, OCT2 (Homo sapiens, UniProt O15244).
T2 sequence (O15244 1-555): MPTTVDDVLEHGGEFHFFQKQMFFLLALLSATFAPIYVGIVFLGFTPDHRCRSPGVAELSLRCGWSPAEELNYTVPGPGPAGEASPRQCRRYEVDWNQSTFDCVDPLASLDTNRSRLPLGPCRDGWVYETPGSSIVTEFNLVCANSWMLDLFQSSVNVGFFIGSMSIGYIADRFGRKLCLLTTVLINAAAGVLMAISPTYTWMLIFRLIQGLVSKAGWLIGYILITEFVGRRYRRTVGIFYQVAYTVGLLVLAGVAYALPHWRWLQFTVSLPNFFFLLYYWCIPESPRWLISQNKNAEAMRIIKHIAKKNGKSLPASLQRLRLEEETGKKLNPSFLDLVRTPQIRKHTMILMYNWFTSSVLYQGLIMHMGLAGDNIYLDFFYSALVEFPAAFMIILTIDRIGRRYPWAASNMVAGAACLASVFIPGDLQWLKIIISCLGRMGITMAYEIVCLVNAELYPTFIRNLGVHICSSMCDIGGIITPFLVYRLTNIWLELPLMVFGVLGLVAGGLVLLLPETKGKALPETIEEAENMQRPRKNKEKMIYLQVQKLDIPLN
Description: Uptake in HEK293 cells overexpressing OCT2. Particulars: for P, OCT2 / Vmax, OCT2 / P (non-saturable clearance parameter), OCT2 / Vmax (maximum uptake rate), OCT2 / Km: HEK293-OCT2, 0.1–1000 μM; for Vmax (maximum uptake rate), OCT2: estimate ± standard error (n = 6); for Km: read-out: Km (Michaelis-Menten constant), OCT2; for Time dependent uptake in HEK-OCT2 cells versus empty vector controls (HEK-P5): 5 μM MPP+ or 50 μM metformin, 1–30 min. The data set is classed as in vitro ADME.

Data set [3] has as its target T1, OCT1. Description: Uptake in HEK293 cells overexpressing OCT1. The data set is classed as in vitro ADME. As to conditions: for P, OCT1 / Vmax, OCT1 / P (non-saturable clearance parameter), OCT1 / Vmax (maximum uptake rate), OCT1 / Km: HEK293-OCT1, 0.1–1000 μM; for Vmax (maximum uptake rate), OCT1: estimate ± standard error (n = 6); for Km: read-out: Km (Michaelis-Menten constant), OCT1; for Time dependent uptake in HEK-OCT1 cells versus empty vector controls (HEK-P5): 5 μM MPP+ or 50 μM metformin, 1–30 min.

The next data set has as its target T3, OCT3 (Homo sapiens, UniProt O75751).
T3 sequence (O75751 1-556): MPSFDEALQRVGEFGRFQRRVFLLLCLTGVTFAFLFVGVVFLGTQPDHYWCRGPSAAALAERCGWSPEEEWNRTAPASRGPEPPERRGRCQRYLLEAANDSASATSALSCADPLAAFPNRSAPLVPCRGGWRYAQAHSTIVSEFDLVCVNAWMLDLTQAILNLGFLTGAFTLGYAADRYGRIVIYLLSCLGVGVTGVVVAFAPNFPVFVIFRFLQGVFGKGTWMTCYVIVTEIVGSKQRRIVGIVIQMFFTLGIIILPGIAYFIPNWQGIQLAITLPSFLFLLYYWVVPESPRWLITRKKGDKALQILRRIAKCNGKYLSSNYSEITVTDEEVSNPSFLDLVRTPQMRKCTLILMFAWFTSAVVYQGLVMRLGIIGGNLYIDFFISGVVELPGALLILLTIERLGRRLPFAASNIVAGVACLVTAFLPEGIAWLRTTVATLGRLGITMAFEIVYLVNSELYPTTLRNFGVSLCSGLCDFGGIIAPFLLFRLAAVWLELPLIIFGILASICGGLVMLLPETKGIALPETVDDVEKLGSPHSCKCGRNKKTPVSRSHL
Description: Uptake in HEK293 cells stably overexpressing OCT3. The class given is in vitro ADME. Particulars: 100 μM.

The target in data set [4] is T2, OCT2. As to conditions: 50 μM compound, 5 μM MPP+, biguanide vs parent amine.
Data set [5] addresses T2, OCT2. Description: Inhibition of [14C]-metformin uptake in HEK293 cells expressing OCT2. The class given is cell-based. As to conditions: for inhibition at 50 μM: human, HEK293 cells expressing OCT2.
Data set [6] has as its target T1, OCT1. Description: Inhibition of [3H]-MPP+ uptake in HEK293 cells expressing OCT1. The class given is cell-based. Particulars: 50 μM compound, 5 μM MPP+, biguanide vs parent amine.
The conditions of data set [7]: cited from earlier work.
[8] abbreviates: 50 μM compound, 50 μM metformin.

Molecules are shown by their SMILES. Values joined by “and” are separate entries in the source; they are usually repeats but may differ in a detail not shown here. Equal entries are not always repeated. Structures can show the parent of a compound that is named as a salt.

In the case of `N=C(N)NC(=N)NCCCc1ccccc1` [2c, 1-(3-Phenylpropyl)-biguanide HCl], the inhibition at 50 μM against OCT1 [1] (human, HEK293 cells expressing OCT1) is at least 50%.
Consider `N=C(N)NC(=N)NCC(c1ccccc1)c1ccccc1` [2f, 2,2-Diphenylethyl-biguanide], for which, on OCT2 [2], the “P, OCT2” value is 0.6 fl/min/mg protein and the “Vmax, OCT2” value is 1.8 pmol/min/mg protein. Further, at OCT2 [2] (10 min), the “P (non-saturable clearance parameter), OCT2” value is 6e-10 ± 3e-10 µL/min/mg; the “Vmax (maximum uptake rate), OCT2” value is recorded as 1.8 ± 0.2 pmol/mg/min; the Km is 12.4 µM and 12 µM. Further, on OCT1 [3], the “P, OCT1” value stood at 1.7 fl/min/mg protein and the “Vmax, OCT1” value is 2.0 pmol/min/mg protein. Also, at OCT1 [3] (10 min), the “P (non-saturable clearance parameter), OCT1” value stood at 1.7e-09 ± 2e-10 µL/min/mg; the “Vmax (maximum uptake rate), OCT1” value was 2.0 ± 0.1 pmol/mg/min; the Km was 14.2 µM and 14 µM. Moreover, the OCT3 substrate entry at OCT3 is “either none or very weak substrates”.
As for `N=C(N)NC(=N)NCCc1ccc(-c2ccccc2)cc1` [2g, 2-(4-Biphenyl)ethyl-biguanide], on OCT2 [4], the “Change of inhibition of OCT2-mediated uptake of MPP+ upon addition of the biguanide moiety” value is “less inhibition”.
`N=C(N)NC(=N)NCCOc1ccccc1` [2h, 1-(2-Phenoxyethyl)-biguanide]: the inhibition at 50 μM at OCT2 [5] was at least 50%. Moreover, on OCT1 [6], the “Change of inhibition of OCT1-mediated uptake of MPP+ upon addition of the biguanide moiety” value is given as “increased inhibition”.
For the molecule `Cl.N=C(N)NC(=N)NC1Cc2ccccc2C1` [2j, 2,3-Dihydro-1H-inden-2-yl-biguanide HCl], the “Inhibition of metformin transport in HEK-OCT2 cells” value at OCT2 [5] (setting [8]) is reported as at least 50%. Further, on OCT2 [2], the “P, OCT2” value came out at 0.1 fl/min/mg protein and the “Vmax, OCT2” value was 1.1 pmol/min/mg protein. In addition, at OCT2 [2] (10 min), the “P (non-saturable clearance parameter), OCT2” value was 1e-10 ± 5e-11 µL/min/mg; the “Vmax (maximum uptake rate), OCT2” value was 1.1 ± 0.04 pmol/mg/min; the Km is 31.7 µM and 32 µM. Also, on OCT1 [3], the “P, OCT1” value stood at 0.6 fl/min/mg protein and the “Vmax, OCT1” value came out at 0.3 pmol/min/mg protein. On OCT1 [3] (10 min), the “P (non-saturable clearance parameter), OCT1” value stood at 6e-10 ± 8e-11 µL/min/mg; the “Vmax (maximum uptake rate), OCT1” value is on record as 0.3 ± 0.05 pmol/mg/min; the Km is 16.9 µM and 17 µM. The OCT3 substrate result on OCT3 was “either none or very weak substrates”. Besides, the “Uptake fold ratio in OCT3 cells” value on OCT3 (single concentration) is given as “significant increase”. Besides, at OCT1 [1] (setting [8]), the “Inhibition of metformin transport in HEK-OCT1 cells” value is at least 50%.
As for `N=C(NN)Nc1ccc(C(=O)O)cc1` [2m, p-(3-Aminoguanidino)-benzoic Acid], the “Inhibition of OCT2 mediated metformin uptake” value on OCT2 [5] (setting [8]) was “only inhibited OCT1”. The “Inhibition of OCT1 mediated metformin uptake” value at OCT1 [1] (setting [8]) is “inhibited”.
Turning to `C[n+]1ccc(-c2ccccc2)cc1` [MPP^+, 1-methyl-4-phenylpyridinium, reference compound], at OCT2 [2], the “Time dependent uptake in HEK-OCT2 cells versus empty vector controls (HEK-P5)” value is “higher”. The “Time dependent uptake in HEK-OCT1 cells versus empty vector controls (HEK-P5)” value on OCT1 [3] is on record as “higher”.
Regarding `CN(C)C(=N)N=C(N)N` [metformin, reference compound], the “Time dependent uptake in HEK-OCT2 cells versus empty vector controls (HEK-P5)” value on OCT2 [2] was “higher”. Also, at OCT1 [3], the “Time dependent uptake in HEK-OCT1 cells versus empty vector controls (HEK-P5)” value was “higher”.
As to `[H]/N=C(/N)N/C(=N/[H])NCCc1ccccc1` [phenformin, reference compound], at OCT2 [5], the inhibition at 50 μM was at least 50%. For the same molecule, the “OCT2 substrate (fold uptake increase of 1.5 and greater over HEK-P5)” value at OCT2 [2] (100 μM, 10 min, HEK-OCT2 vs empty vector) is listed as “substrates”. Besides, the “OCT1 substrate (fold uptake increase of 1.5 and greater over HEK-P5)” value at OCT1 [3] (100 μM, 10 min, HEK-OCT1 vs empty vector) is reported as “substrates”. Further, at OCT1 [6], the “Change of inhibition of OCT1-mediated uptake of MPP+ upon addition of the biguanide moiety” value was “increased inhibition”. Further, the “Change of inhibition of OCT2-mediated uptake of MPP+ upon addition of the biguanide moiety” value on OCT2 [4] is “less inhibition”.
Consider `CC(C)[C@H](N)C(=O)OCCOCn1cnc2c(=O)[nH]c(N)nc21` [valacyclovir], for which the Oral bioavailability in data set [7] was 50%.
